Laboratory results from patent US9908880B2, “Substituted imidazoquinolines” (4SC AG, priority 2008, dated 2018).

Experiments:
[1] = tested on: Renca LacZ tumor cell lung metastases; assay: Renca lung metastasis model
Method: In particular, female Balb/c mice (n=10) were treated for 4 consecutive days starting day 1 or day 8 after Renca LacZ tumor cell injection, respectively. The compounds were applied in 20% PEG, ODNs in 0.9% NaCl as indicated. Lungs were excised 25 days after tumor cell injection.
In particular, female Balb/c mice (n=10) were treated for 4 consecutive days starting day 1 or day 8 after Renca LacZ tumor cell injection, respectively. The compounds (small molecules (SMOLs)) were applied in 20% PEG, ODNs in 0.9% NaCl as indicated. Lungs were excised 25 days after tumor cell injection.
Abstract 3552, Proc Am Cancer Res 48, 2007.
In particular, female Balb/c mice (n=10) were treated for 4 consecutive days starting day 1 or day 8 after Renca LacZ tumor cell injection, respectively. The SMOLs were applied in 20% PEG, the oligonucleotides in 0.9% NaCl as indicated. Lungs were excised 25 days after tumor cell injection (see FIG. 4A). Further, female Balb/c mice (n=5) were treated for 4 consecutive days as indicated. The SMOLs were applied in 20% PEG, oligonucleotides in 0.9% NaCl. At day 4 of treatment, blood was collected via orbital plexus and spleens were excised. Subsequently, mRNA was isolated for expression analysis via qPCR. Data were normalized to vehicle control (mean set to 1). Statistical evaluation was performed via Mann-Whitney test (see FIG. 4B). […]

PCIR-1 cells = assay: Cytokine mRNA induction in PCIR-1 human cancer cell line (TaqMan PCR); assay type: cell-based; details: for induction of IP-10: after 15 h
Method: Expression of IL8 mRNA was measured with TaqMan PCR after 16 hours incubation of cells with H2006, LPS or Resiquimod alone and in combination with cloroquine.
Cellular assays using a human cancer cell line (PCIR-1) or human PBMC fractions to test compounds for activating TLR7 are established.
Specificity for TLR7 and 9 was checked by adding chloroquine, which abrogates signaling through endosomal TLRs. The PCIR-1 system is suited for measuring the interferone-linked cytokine IP10 by a bead-based assay in the 384-well format.
TLR mRNA Expression in PCIR-1 (TaqMan PCR Analysis)
Also response to poly I-C double-stranded RNA (TLR 3 ago); 40-fold induction of IP-10 after 15 h) and MALP-2 (TLR 2/6 hetero-dimer ago, 100-fold induction of IP-10 after 15 h) is detected.
In contrast TLR4 signaling by LPS is not affected (FIG. 1).

[2] = tested on: superficial basal cell carcinomas; details: marketed 5% cream (Aldara), topical; cited from earlier work

Nc1nc2c(sc(=O)n2[C@@H]2O[C@H](CO)[C@@H](O)[C@H]2O)c(=O)[nH]1 [isatoribine, 7-thia-8-oxoguanosine]
emergence of lung metastases ([1]; murine Renca lung metastasis model): virtually completely suppressed

CCN(CC)CCCC(C)Nc1ccnc2cc(Cl)ccc12 (stereo not drawn) [chloroquine]
signaling via TLR7 and TLR9 on addition of chloroquine (PCIR-1 cells; FIG. 1, IL8 mRNA after 16 hours): completely blocked

CCc1nc2c(N)nc3ccccc3c2n1CCCCN(C(C)=O)C1CCOC1C (stereo not drawn) [Example III, 3-{acetyl[4-(4-amino-2-ethyl-1H-imidazo[4,5-c]quinolin-1-yl)butyl]amino}-2,5-anhydro-1,3,4-trideoxypentitol]
anti-metastatic effect (clearance of the lungs) ([1]; short treatment (d1-4), FIG. 5): strong anti-metastatic effect with virtually complete clearance of the lungs

MALP-2
induction of IP-10 (PCIR-1 cells): 100 fold

poly I-C
induction of IP-10 (PCIR-1 cells): 40 fold

CC(C)Cn1cnc2c(N)nc3ccccc3c21 [Imiquimod, imiquimod]
5 year clearance of superficial basal cell carcinomas [2]: approx 80%
